Series [1] deals with T1, Na+/H^+ exchanger of rabbit erythrocytes (Oryctolagus cuniculus, UniProt P23791).
T1 construct: determine the Na^+ influx into the erythrocytes via Na^+ /H^+ exchange by flame photometry; endogenous in cells; host or cells: erythrocytes in blood from the ear arteries of cholesterol-fed White New Zealand rabbits (Ivanovas)
Put plainly: Inhibition of the Na+/H+ exchanger of rabbit erythrocytes (amiloride-sensitive Na+ influx, flame photometry). Format: cell-based, rabbit (White New Zealand). Particulars: cholesterol diet 2% six weeks, pH 7.4, 37° C. An excerpt:
Inhibition of the Na+/H^+ exchanger of rabbit erythrocytes
White New Zealand rabbits (Ivanovas) were given a standard diet with 2% of cholesterol for six weeks in order to activate the Na^+ /H^+ exchange and in this way to be able to determine the Na^+ influx into the erythrocytes via Na^+ /H^+ exchange by flame photometry. The blood was removed from the ear arteries and rendered noncoagulable by 25 IU of potassium-heparin. A portion of each sample was used for duplicate determination of the hematocrit by centrifugation. Aliquots of in each case 100 μl were used for measurement of the starting Na^+ content of the erythrocytes.
To determine the amiloride-sensitive sodium influx, 100 μl of each blood sample were incubated in 5 ml portions each of a hyperosmolar salt/sucrose medium (mmol/l: 140 NaCl, 3 KCl, 150 sucrose, 0.1 ouabain, 20 tris-hydroxymethylaminomethane) at pH 7.4 and 37° C. The erythrocytes were then washed three times with ice-cold MgCl2 /ouabain solution (mmol/l: 112 MgCl2, 0.1 ouabain) and hemolyzed in 2.0 ml of distilled water. The intracellular sodium content was determined by flame photometry.
The Na^+ net influx was calculated from the difference between the starting sodium values and the sodium content of the erythrocytes after incubation. The sodium influx which can be inhibited by amiloride resulted from the difference between the sodium content of the erythrocytes after incubation with and without 3×10^-4 mol/l of amiloride. This procedure was also followed with compounds according to the invention.

Series [2] deals with disturbances in cardiac rhythm. Particulars: Circulation 79, 1257-63 (1989); cited from earlier work.
Series [3] has as its system artificially induced ventricular fibrillation on rat hearts. Particulars: isolated rat hearts, cited from earlier work.

Structures are written as SMILES. Counter-ions that a name gives are not always drawn.

T1 sequence (P23791 whole entry): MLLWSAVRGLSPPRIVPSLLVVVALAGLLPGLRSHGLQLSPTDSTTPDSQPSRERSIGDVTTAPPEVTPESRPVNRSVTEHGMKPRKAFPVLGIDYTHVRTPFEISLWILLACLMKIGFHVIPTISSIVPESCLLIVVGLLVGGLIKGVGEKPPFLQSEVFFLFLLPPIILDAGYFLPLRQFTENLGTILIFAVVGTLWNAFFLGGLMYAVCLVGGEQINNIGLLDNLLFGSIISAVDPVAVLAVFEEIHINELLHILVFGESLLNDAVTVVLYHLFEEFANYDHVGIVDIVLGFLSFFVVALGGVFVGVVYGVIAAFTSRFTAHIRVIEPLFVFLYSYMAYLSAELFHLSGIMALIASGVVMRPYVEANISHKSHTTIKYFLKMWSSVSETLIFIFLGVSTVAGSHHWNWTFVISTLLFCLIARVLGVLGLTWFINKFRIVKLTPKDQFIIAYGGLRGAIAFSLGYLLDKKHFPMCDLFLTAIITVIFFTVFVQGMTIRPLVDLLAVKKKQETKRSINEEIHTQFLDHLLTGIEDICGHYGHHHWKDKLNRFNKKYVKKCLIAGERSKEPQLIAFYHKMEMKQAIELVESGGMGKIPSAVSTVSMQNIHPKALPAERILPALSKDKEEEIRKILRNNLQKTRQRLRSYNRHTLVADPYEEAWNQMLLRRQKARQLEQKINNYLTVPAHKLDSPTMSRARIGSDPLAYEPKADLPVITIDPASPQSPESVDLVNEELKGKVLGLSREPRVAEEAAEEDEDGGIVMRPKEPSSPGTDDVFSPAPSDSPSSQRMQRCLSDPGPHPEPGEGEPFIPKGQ

With `CC(C)(C)OC(=O)N[C@@H](Cc1ccc(Oc2ccc(C(=O)N=C(N)N)cc2S(C)(=O)=O)cc1)C(=O)O` [Example 1, N-tert-Butoxycarbonyl-4-[(4-guanidinocarbonyl-2-methylsulfonyl)phenoxy]-phenylalanine], it took 430 nM to reach half-maximal inhibition in series [1] (IC50).
On to `CS(=O)(=O)c1cc(C(=O)N=C(N)N)ccc1Oc1ccc(C[C@H](N)C(=O)O)cc1` [Example 2, 4-[(4-Guanidinocarbonyl-2-methylsulfonyl)phenoxy]phenylalanine], for which the half-maximal inhibitory concentration (IC50) (in general, the concentration needed to halve the response being measured) in series [1] is 1000 nM.
Take `NC(N)=NC(=O)c1ccc(Oc2ccc(CC(N)C(=O)O)cc2)c(C(F)(F)F)c1` (stereo not shown) [Example 4, 4-[(4-Guanidinocarbonyl-2-trifluoromethyl)phenoxy]phenylalanine, dihydrochloride]: it took 26 nM to reach half-maximal inhibition in series [1] (IC50).
Consider `NC(N)=NC(=O)c1nc(Cl)c(N)nc1N` [amiloride], for which, in series [2], the antiarrhythmic effect entry is reported as “only weak”; the “side-effects accompanying the antiarrhythmic effect” value is “antihypertensive and saluretic action”. Besides, the “suppression of artificially induced ventricular fibrillation” value in series [3] was “suppressed completely”.
Regarding `CCN(c1nc(N)c(C(=O)N=C(N)N)nc1Cl)C(C)C` [ethylisopropylamiloride], in series [3] (relative to amiloride), the “potency against ventricular fibrillation compared with amiloride” value was “even more potent than amiloride”.
